# Measurements: patent US20120245201A1, “Isopropylphenidate for Treatment of Attention-Deficit/Hyperactivity Disorder and Fatigue-Related Disorders and Conditions” (priority 2009, published 2012)
# Key:
# [1] = biological target: T1, human dopamine (DA) transporter (DAT) (Homo sapiens, UniProt Q01959); assay: Dopamine transporter binding assay ([3H]GBR 12935, CEREP); conditions: HCl salts
# T1 construct: host or cells: CHO cells, cell membrane homogenates
# Method: Transporter Binding and Cellular Uptake. All described monoamine transporter binding studies as well as cellular uptake assays were performed in duplicate by CEREP (Celle l'Evescault, France) and are described below. Further details of all assays performed may be accessed at the CEREP web site (world-wide-web at cerep.com). Cellular-based assays were conducted to provide complementary in vitro functional measures to complement the standard transporter assays as well as to provide direct comparisons of the homologs IPH with MPH with regard to DA, NE, and 5-HT uptake in synaptosomal preparations. […]
# Dopamine Transporter Binding Assay. Evaluation of the affinity of both compounds for the human dopamine (DA) transporter (DAT) in transfected Chinese Hamster Ovary (CHO) cells was determined in a validated radioligand binding assay. […] Nonspecific binding was determined in the presence of 10 μM N-[1-(Benzo[b]thien-2-yl-cyclohexyl)] piperidine (BTCP). […] The filters were then dried and measured for radioactivity with a scintillation counter (TopCount, Packard) using a liquid scintillation cocktail (Microscint 0, Packard). The results of DAT binding experiments as well as the other transporter assays described in the following sections were expressed as a percent inhibition of the control radioligand specific binding. […]
# [2] = biological target: T2, human norepinephrine (NE) transporter (NET) (Homo sapiens, UniProt P23975); assay: Norepinephrine transporter binding assay ([3H]nisoxetine, CEREP)
# T2 construct: host or cells: CHO cells, cell membrane homogenates
# Method: (§1) Transporter Binding and Cellular Uptake. All described monoamine transporter binding studies as well as cellular uptake assays were performed in duplicate by CEREP (Celle l'Evescault, France) and are described below. Further details of all assays performed may be accessed at the CEREP web site (world-wide-web at cerep.com). Cellular-based assays were conducted to provide complementary in vitro functional measures to complement the standard transporter assays as well as to provide direct comparisons of the homologs IPH with MPH with regard to DA, NE, and 5-HT uptake in synaptosomal preparations.
# Norepinephrine Transporter Binding Assay. Evaluation of the affinity of the two compounds for the human norepinephrine (NE) transporter (NET) in transfected CHO cells was determined in a radioligand assay analogous to the procedures described for the DAT assay. Cell membrane homogenates were incubated for 90 min at 4° C. with 1 nM [^3H]nisoxetine in the absence or presence of each test compound in a standard buffer solution. Nonspecific binding was determined in the presence of 1 μM of desipramine. Following incubation, the samples were filtered rapidly under vacuum and rinsed several times with a buffer solution. The filters were then dried and radioactivity counts were obtained. The results are expressed as percent inhibition of the control radioligand specific binding. The standard reference compound was the tricyclic antidepressant (TCA) protriptyline, which was tested in each experiment at several concentrations to generate a competition curve from which its IC50 was calculated.
# [3] = biological target: T3, human serotonin 5-HT transporter (SERT) (Homo sapiens, UniProt P31645); assay: Serotonin transporter binding assay ([3H]imipramine, CEREP); conditions: ligand [3H]imipramine, transfected CHO cells, HCl salts
# T3 construct: host or cells: CHO cells, cell membrane homogenates
# Method: as §1, with “preparations. The concentration of MPH, EPH, and IPH utilized in these studies was 10 μM, which represents a generally accepted screening concentration when evaluating compounds in this manner.” for “preparations.”
# Serotonin Transporter Binding Assay. […] Briefly, cell membrane homogenates were incubated for 90 min at 4° C. with 2 nM of [^3H]imipramine in the absence and presence of each of the assessed compounds. Nonspecific binding was determined in the presence of 10 μM of imipramine. […] The filters were then dried and measured for radioactivity via scintillation counter. The standard reference compound was the TCA imipramine, which was tested in each experiment at several concentrations to generate a competition curve from which its IC50 was calculated.
# [4] = test system: DA uptake, synaptosomes prepared from the rat striatum; assay: Dopamine uptake into synaptosomes; type: cell-based
# Method: as §1
# Dopamine Uptake. The evaluation of the effects of the two compounds on DA uptake again utilized synaptosomes but this time prepared from the rat striatum. […] After incubation, the samples were filtered, counted, and the results expressed as a percent inhibition of the control uptake of [^3H]dopamine by scintillation count. The standard inhibitory reference compound was GBR12909, which was tested in each experiment at several concentrations to obtain an inhibition curve from which its IC50 value was calculated.
# [5] = test system: human intestinal microsomes (HIM); assay: Hydrolysis to ritalinic acid by human intestinal microsomes; type: in vitro ADME; conditions: 1 mM substrate, 0.2 mg/ml HIM, 37° C., 60 min
# Method: FIG. 2—Hydrolysis of methylphenidate (MPH) and isopropylphenidate (IPH) by recombinant human CES1, HLM, HIM. After incubation with CES 1 transfected human cells, HLM, and HIM at 37° C. for 60 min, the metabolite RA produced via hydrolysis of MPH and IPH was determined by HPLC. Data are presented as mean±SEM of 3 to 6 independent experiments.
# Determination of Relative Hydrolytic Rates of MPH and IPH. The assessment of relative rates of hydrolysis of the two ester compounds utilized both cell culture and human liver microsomes (HLM) and human intestinal microsomes (HIM). The human carboxylesterase 1 (hCES1) s9 fraction was prepared utilizing a novel method developed in the inventors' laboratory previously (Zhu et al., 2008). Hydrolysis of IPH and MPH by hCES1, HLM, and human intestinal microsomes was assessed by incubating the substrates with the respective enzymes and measuring the formation of the major metabolite RA formed via ester hydrolysis. Briefly, 50 μl of freshly prepared substrates (IPH and MPH) was mixed with 50 μl of enzymes in 1.5 ml Eppendorf tubes yielding a total volume of 100 μl. […] Concentrations of the primary hydrolytic product of the two compounds, RA were determined utilizing a validated HPLC method previously described.
# T2 sequence (P23975 whole entry): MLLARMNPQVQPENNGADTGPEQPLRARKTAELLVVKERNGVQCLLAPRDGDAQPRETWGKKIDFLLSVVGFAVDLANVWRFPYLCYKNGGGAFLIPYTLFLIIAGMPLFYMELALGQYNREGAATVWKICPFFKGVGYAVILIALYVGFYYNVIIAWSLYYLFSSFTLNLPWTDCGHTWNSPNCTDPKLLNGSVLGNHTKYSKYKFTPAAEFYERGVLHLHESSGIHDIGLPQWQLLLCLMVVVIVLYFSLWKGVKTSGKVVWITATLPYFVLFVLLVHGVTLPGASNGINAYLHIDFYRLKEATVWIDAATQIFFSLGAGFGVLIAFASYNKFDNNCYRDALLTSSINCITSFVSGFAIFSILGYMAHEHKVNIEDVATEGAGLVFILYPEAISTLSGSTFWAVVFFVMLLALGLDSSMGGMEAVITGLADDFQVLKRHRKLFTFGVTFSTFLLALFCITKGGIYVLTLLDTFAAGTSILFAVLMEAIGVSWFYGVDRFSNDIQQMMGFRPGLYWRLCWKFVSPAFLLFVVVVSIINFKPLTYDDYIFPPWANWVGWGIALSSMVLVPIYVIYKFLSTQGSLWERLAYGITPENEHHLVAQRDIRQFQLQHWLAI
# T3 sequence (P31645 whole entry): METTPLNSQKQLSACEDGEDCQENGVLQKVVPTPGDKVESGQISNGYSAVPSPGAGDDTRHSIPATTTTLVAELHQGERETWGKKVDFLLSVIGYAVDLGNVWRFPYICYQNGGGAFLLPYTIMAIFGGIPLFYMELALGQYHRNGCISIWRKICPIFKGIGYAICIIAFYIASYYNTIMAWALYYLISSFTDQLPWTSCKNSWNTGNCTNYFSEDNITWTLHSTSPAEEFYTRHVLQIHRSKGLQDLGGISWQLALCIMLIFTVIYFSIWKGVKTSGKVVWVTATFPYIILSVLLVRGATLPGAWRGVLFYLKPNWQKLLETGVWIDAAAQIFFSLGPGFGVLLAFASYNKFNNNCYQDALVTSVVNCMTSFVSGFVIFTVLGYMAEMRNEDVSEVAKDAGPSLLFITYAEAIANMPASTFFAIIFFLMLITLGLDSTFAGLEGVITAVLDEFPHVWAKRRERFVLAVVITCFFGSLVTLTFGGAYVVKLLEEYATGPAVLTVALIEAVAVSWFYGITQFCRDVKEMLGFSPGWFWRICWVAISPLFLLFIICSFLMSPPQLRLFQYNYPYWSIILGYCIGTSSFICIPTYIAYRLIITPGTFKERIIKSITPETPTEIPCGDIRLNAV
# T1 sequence (Q01959 whole entry): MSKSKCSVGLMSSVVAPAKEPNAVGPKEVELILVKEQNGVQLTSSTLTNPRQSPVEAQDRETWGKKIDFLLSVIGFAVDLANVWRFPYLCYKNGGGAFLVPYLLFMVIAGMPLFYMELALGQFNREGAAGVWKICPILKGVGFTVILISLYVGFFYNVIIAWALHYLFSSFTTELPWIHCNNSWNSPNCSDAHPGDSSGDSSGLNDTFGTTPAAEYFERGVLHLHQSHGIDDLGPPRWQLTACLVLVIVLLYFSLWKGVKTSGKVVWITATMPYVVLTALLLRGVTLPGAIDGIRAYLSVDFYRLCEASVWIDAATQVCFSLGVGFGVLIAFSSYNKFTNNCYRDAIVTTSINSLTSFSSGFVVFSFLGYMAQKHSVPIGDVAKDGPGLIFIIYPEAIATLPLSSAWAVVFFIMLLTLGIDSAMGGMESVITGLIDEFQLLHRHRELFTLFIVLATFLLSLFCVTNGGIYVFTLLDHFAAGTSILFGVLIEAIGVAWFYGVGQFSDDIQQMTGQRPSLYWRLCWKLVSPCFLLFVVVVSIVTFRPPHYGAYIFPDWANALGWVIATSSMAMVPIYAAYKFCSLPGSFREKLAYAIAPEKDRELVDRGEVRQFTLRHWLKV
SMILES,"% inhibition of control specific binding, DAT (h) ([1]; 10 μM, ligand [3H]GBR-12935, transfected CHO cells)","NET affinity of IPH relative to MPH ([2]; 10 μM, inhibition of specific control binding)","% inhibition of control specific binding, NET (h) ([2]; 10 μM, ligand [3H]nisoxetine, transfected CHO cells, HCl salts)","% inhibition of control specific binding, SERT (h) ([3]; 10 μM)","% inhibition of control specific binding; [3H]DA incorporation into synaptosomes ([4]; 10 μM, rat striatum synaptosomes)",catalytic activity of HIM on hydrolysis [5],"inhibition at 10 µM ([1]; ligand [3H]GBR-12935, transfected CHO cells, read-out: % inhibition of control specific binding, DAT (h))","inhibition at 10 µM ([2]; ligand [3H]nisoxetine, transfected CHO cells, HCl salts, read-out: % inhibition of control specific binding, NET (h))","inhibition at 10 µM ([3]; read-out: % inhibition of control specific binding, SERT (h))","inhibition at 10 µM ([4]; Rattus norvegicus, read-out: % inhibition of control specific binding, [3H]DA incorporation into synaptosomes)"
"CC(C)OC(=O)C(c1ccccc1)C1CCCCN1 (racemic) [IPH, dl-threo-α-phenyl-2-piperidineacetic acid isopropyl ester]",97%,one-third,27%,20%,96%,extremely low,–,–,–,–
"COC(=O)C(c1ccccc1)C1CCCCN1 (racemic) [MPH, dl-threo-methylphenidate, reference compound]",–,–,–,–,–,extremely low,101%,88%,6%,90%
